Test results published in patent US20180086810A1, “T CELL RECEPTOR FUSIONS AND CONJUGATES AND METHODS OF USE THEREOF” (ALTOR BIOSCIENCE CORPORATION, priority 2000, published 2018).

How the values were obtained:
[1] = tested on: CTLL-2 cells and 264 peptide-loaded T2 cells; assay: Cell-cell conjugation assay, CTLL-2 cells with 264 peptide-loaded T2 cells, flow cytometer; format: cell-based, murine CTLL-2, human T2
Description: (§1) In this experiment, T2 cells pulsed with either the 149 or 264 peptide. CTLL-2 cells were hydrodiethidium (HE) labeled and incubated for 20 minutes at RT with an equal number of calcein-AM labeled T2 cells pulsed with either 50 μg of 149 or 264 peptide. […] In contrast, conjugate formation was not observed with the mixture that included the 149 peptide pulsed T2 cells (B; 0.88%). Cell samples were washed one time before analysis on the flow cytometer.

[2] = tested on: CTLL-2 cells and 149 peptide pulsed T2 cells; assay: Cell-cell conjugation assay, CTLL-2 cells with 149 peptide pulsed T2 cells, flow cytometer; format: cell-based, murine CTLL-2, human T2; settings: fusion protein; HE-labeled CTLL-2 and calcein-AM labeled T2 pulsed with 50 μg 149 peptide; 20 minutes at RT
Description: as §1

[3] = molecular target: 264 peptide/HLA-A2 complexes on the surface of the human B lymphoid cell line T2 (Homo sapiens, UniProt P04439+P04637, D140Y/D185E/D98H/E176V/E277Q/G131W/G231S/I119V/I121R/I166T/I218V/L300P/L318F/N151K/N90K/P208A/P217A/Q86G/Q94H/R138H/R169H/T345S); assay: Flow cytometry / immunofluorescence staining of peptide-pulsed T2 cells with fusion protein (264 peptide); format: binding; settings: 0.5 μg (10 μg/ml) fusion protein; T2 cells pulsed with 264 peptide
Description: (§2) Flow cytometry and immunofluoresence staining were used to show direct binding of the fusion protein via its TCR to peptide/HLA-A2 complexes on the surface of the human B lymphoid cell line T2 (FIG. 4) • A) Staining of 149 or 264 peptide pulsed T2 cells with 0.5 μg (10 μg/ml) of 264 scTCR-IL-2 fusion protein. […] To evaluate A2 loading of each peptide, the cells were stained with the HLA-A2 specific mAb BB7.2 […] after overnight incubation of the cells with peptide.

[4] = molecular target: T1, 149 peptide/HLA-A2 complexes on the surface of the human B lymphoid cell line T2 (Homo sapiens, UniProt P04439+P04637, D140Y/D185E/D98H/E176V/E277Q/G131W/G231S/I119V/I121R/I166T/I218V/L300P/L318F/N151K/N90K/P208A/P217A/Q86G/Q94H/R138H/R169H/T345S); assay: Flow cytometry / immunofluorescence staining of peptide-pulsed T2 cells with fusion protein (149 peptide); format: binding; settings: 0.5 μg (10 μg/ml) fusion protein; T2 cells pulsed with 149 peptide
T1 construct: on the surface of the human B lymphoid cell line T2; endogenous in cells; host or cells: T2 cells pulsed with 149 peptide
Description: as §2

HLA-A2 = molecular target: T2, HLA-A2 (Homo sapiens, UniProt P04439, D140Y/D185E/D98H/E176V/E277Q/G131W/G231S/I119V/I121R/I166T/I218V/L300P/L318F/N151K/N90K/P208A/P217A/Q86G/Q94H/R138H/R169H/T345S); assay: HLA-A2 loading of peptide on T2 cells, staining with HLA-A2 specific mAb BB7.2; format: cell-based; settings: T2 cells pulsed with 50 μg peptide overnight; BB7.2 staining
T2 construct: HLA-A2 surface expression on T2 cells; endogenous in cells; host or cells: T2 cells
Description: as §2

binding of fusion protein to T2 cells displaying the 264 peptide [3] | binding of fusion protein to T2 cells displaying the 149 peptide [4] | HLA-A2 binding of peptide (HLA-A2 surface expression on pulsed T2 cells) (HLA-A2) | Substance | conjugation between cells (conjugate formation) ([1]; 1 Ag of fusion protein, HE-labeled CTLL-2 and calcein-AM labeled T2 pulsed with 50 μg 264 peptide, 20 minutes at RT) [%] | conjugation between a T cell and an antigen presenting cell pulsed with the correct peptide ([1]; restatement of example 11) | conjugation between cells (conjugate formation) [2] [%]
binds specifically | not |  | 264 scTCR-IL-2 fusion protein: soluble 264 single-chain TCR covalently linked to human IL-2 with EE peptide tag | 3.25 | able to mediate conjugation | 0.88
 |  | efficient HLA-A2 binding | LLGRNSFEV [264 peptide] |  |  | 
